As usually defined, the IC50 is the concentration that gives 50% inhibition.

The target of the test is T1, ZAP-70 (Homo sapiens, UniProt P43403).
T1 sequence (P43403 1-619): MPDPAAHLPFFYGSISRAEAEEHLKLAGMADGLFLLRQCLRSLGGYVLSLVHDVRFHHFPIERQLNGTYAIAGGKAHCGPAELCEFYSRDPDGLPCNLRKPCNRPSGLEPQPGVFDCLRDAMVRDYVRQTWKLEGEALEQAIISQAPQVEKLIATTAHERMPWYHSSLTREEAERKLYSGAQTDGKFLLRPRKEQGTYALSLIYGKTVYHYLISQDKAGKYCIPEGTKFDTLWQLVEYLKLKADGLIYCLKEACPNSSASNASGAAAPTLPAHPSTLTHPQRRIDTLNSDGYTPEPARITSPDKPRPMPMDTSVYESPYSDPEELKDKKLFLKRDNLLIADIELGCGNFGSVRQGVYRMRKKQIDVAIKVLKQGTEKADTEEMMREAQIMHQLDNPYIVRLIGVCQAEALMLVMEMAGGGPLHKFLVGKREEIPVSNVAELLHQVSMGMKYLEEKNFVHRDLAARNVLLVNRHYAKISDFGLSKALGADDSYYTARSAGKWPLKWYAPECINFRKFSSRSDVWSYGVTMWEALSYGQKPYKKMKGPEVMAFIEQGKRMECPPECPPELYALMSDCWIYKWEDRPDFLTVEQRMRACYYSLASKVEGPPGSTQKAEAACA
The experiment in a line: DELFIA assay (ZAP-70 kinase, phosphorylation of biotinylated poly(glu,tyr)). It counts as biochemical. Particulars: ZAP-70 DELFIA, class symbols; read-out: Activity (IC50 in vitro). Here is the method:
Before initiation of kinase reactions, compounds were pre-incubated with ZAP-70. Pre-incubation reactions contained 62.5 mM Mops pH 7.0, 12.5 mM MgCl2, 12.5% glycerol, 3.1 nM ZAP-70, 62.5 nM biotinylated poly(glu,Tyr), 0.1 mg/ml BSA, 6.25% DMSO and […] compound in a total volume of […]. After a 10 minute room temperature incubation, 10 ml of 5 mM ATP was added to start the reaction. Reactions were incubated at room temperature for 30 minutes then terminated by addition of 5 ml 500 mM EDTA. The amount of phosphate transferred to biotinylated poly(glu,tyr) was measured using the Dissociation Enhanced Lanthanide Fluorescence Immuno-assay (DELFIA) from Perkin Elmer according to manufacturers protocol. Briefly, biotinylated […] was captured on streptavidin coated plates, washed twice, then incubated with Europium labeled-anti-phosphotyrosine antibody. Free antibody was removed with six washes, Europium was dissociated from the antibody, and Europium fluorescence was measured at using an excitation wavelength of 340 nm and an emission wavelength of 615 nm.

With `O=C(c1cc(NCc2ccc(C(F)(F)F)cc2)nc2ccc(-c3ccc(Cl)c(Cl)c3)cc12)N1CCC[C@H]1CN1CCCC1` [Compound 105], the IC50 was < 1 µM.

For `N#Cc1cccc(-c2ccc3nc(NCc4ccc(C(F)(F)F)cc4)cc(C(=O)N4CCC[C@H]4CN4CCCC4)c3c2)c1` [Compound 106], the IC50 was < 1 µM.

With `N#Cc1ccc(-c2ccc3nc(NCc4ccc(C(F)(F)F)cc4)cc(C(=O)N4CCC[C@H]4CN4CCCC4)c3c2)cc1` [Compound 107], the IC50 was < 1 µM.

Consider `O=C(c1cc(NCc2ccc(C(F)(F)F)cc2)nc2ccc(-c3cc(F)cc(F)c3)cc12)N1CCC[C@H]1CN1CCCC1` [Compound 108], for which the IC50 was 1 to 10 µM.

Regarding `O=C(c1cc(NCc2ccc(C(F)(F)F)cc2)nc2ccc(-c3ccc4c(c3)OCO4)cc12)N1CCCC1CCN1CCCC1` (centres unmarked) [Compound 109], the IC50 was 1 to 10 µM.

With `O=C(c1cc(NCc2ccc(C(F)(F)F)cc2)nc2ccc(-c3ccc4c(c3)OCO4)cc12)N1CCC(CN2CCCC2)C1` (centres unmarked) [Compound 110], the IC50 is > 10 µM.

For `O=C(NCc1ccc(C(F)(F)F)cc1)c1cc(NCc2ccc(C(F)(F)F)cc2)nc2ccc(-c3ccc4c(c3)OCO4)cc12` [Compound 111], the IC50 was > 10 µM.

For `O=C(c1cc(Cl)ncc1Cl)N1CCC[C@H]1CN1CCCC1` [Compound 112], the IC50 was > 10 µM.

Consider `O=C(c1cc(Cl)nc(Cl)c1)N1CCC[C@H]1CN1CCCC1` [Compound 113], for which the IC50 was > 10 µM.

Take `O=C(c1cc(NCc2ccc(C(F)(F)F)cc2)ncc1Cl)N1CCC[C@H]1CN1CCCC1` [Compound 114]: the IC50 is > 10 µM.

As to `O=C(c1cc(Cl)nc(/C=C/c2ccccc2)c1)N1CCC[C@H]1CN1CCCC1` [Compound 115], the IC50 is > 10 µM.

`O=C(c1cc(/C=C/c2ccccc2)nc(/C=C/c2ccccc2)c1)N1CCC[C@H]1CN1CCCC1` [Compound 116]: the half-inhibitory concentration (IC50) was 1 to 10 µM.

For `CC(Nc1cc(C(=O)N2CCC[C@H]2CN2CCCC2)c2cc(-c3ccc4c(c3)OCO4)ccc2n1)c1ccc(F)cc1` (some centres unmarked) [Compound 117], the IC50 is < 1 µM.

As for `O=C(c1cc(NCc2ccc(C(F)(F)F)cc2)nc2cc(-c3ccc4c(c3)OCO4)ccc12)N1CCC[C@H]1CN1CCCC1` [Compound 118], the IC50 lay in the range of 1 to 10 µM.

As to `N#Cc1cccc(-c2ccc3c(C(=O)N4CCC[C@H]4CN4CCCC4)cc(NCc4ccc(C(F)(F)F)cc4)nc3c2)c1` [Compound 119], the IC50 is > 10 µM.

For the compound `N#Cc1ccc(-c2ccc3c(C(=O)N4CCC[C@H]4CN4CCCC4)cc(NCc4ccc(C(F)(F)F)cc4)nc3c2)cc1` [Compound 120], the 50% inhibitory concentration (IC50) fell in the range of 1 to 10 µM.

On to `O=C(c1cc(NCc2ccc(C(F)(F)F)cc2)nc2cc(-c3cc(F)cc(F)c3)ccc12)N1CCC[C@H]1CN1CCCC1` [Compound 121], for which the IC50 was in the range of 1 to 10 µM.

As for `O=C(c1cc(NCc2ccc(C(F)(F)F)cc2)nc2cc(-c3ccc(Cl)c(Cl)c3)ccc12)N1CCC[C@H]1CN1CCCC1` [Compound 122], the IC50 fell in the range of 1 to 10 µM.

For `CS(=O)(=O)c1ccc(-c2ccc3c(C(=O)N4CCC[C@H]4CN4CCCC4)cc(NCc4ccc(C(F)(F)F)cc4)nc3c2)cc1` [Compound 123], the IC50 lay in the range of 1 to 10 µM.

Turning to `Cc1c(NCc2ccc(C(F)(F)F)cc2)nc2ccc(-c3ccc4c(c3)OCO4)cc2c1C(=O)N1CCC[C@H]1CN1CCCC1` [Compound 124], the IC50 fell in the range of 1 to 10 µM.

For `O=C(c1cc(NCc2ccc(C(F)(F)F)cc2)nc2ccc(-c3ccc4c(c3)OC(F)(F)C(F)(F)O4)cc12)N1CCC[C@H]1CN1CCCC1` [Compound 125], the IC50 is < 1 µM.

In the case of `O=C(c1cc(NCc2ccc(C(F)(F)F)cc2)nc2ccc(-c3ccc4c(c3)OCCO4)cc12)N1CCC[C@H]1CN1CCCC1` [Compound 126], the IC50 was < 1 µM.

On to `O=C(c1cc(NCc2ccc(C(F)(F)F)cc2)nc2ccc(-c3ccc4cc[nH]c4c3)cc12)N1CCC[C@H]1CN1CCCC1` [Compound 127], for which the IC50 was < 1 µM.

For `O=C(c1cc2cc(-c3ccc4c(c3)OCO4)ccc2nc1NCc1ccc(C(F)(F)F)cc1)N1CCCC1CN1CCCC1` (centres unmarked) [Compound 128], the IC50 is > 10 µM.

Take `CN(Cc1ccccc1)c1cc(C(=O)N2CCC[C@H]2CN2CCCC2)c2cc(Oc3ccccc3)ccc2n1` [Compound 129]: the half-maximal inhibitory concentration (IC50) fell in the range of 1 to 10 µM.

For `O=C(c1cc(/C=C/c2ccccc2)nc2ccc(-c3ccc4c(c3)OCO4)cc12)N1CCC[C@H]1CN1CCCC1` [Compound 130], the IC50 is 1 to 10 µM.

Turning to `O=C(c1cc(/C=C/c2ccc(F)cc2)nc2ccc(-c3ccc4c(c3)OCO4)cc12)N1CCC[C@H]1CN1CCCC1` [Compound 131], the 50% inhibitory concentration (IC50) fell in the range of 1 to 10 µM.

With `O=C(c1cc(/C=C/c2ccc(Cl)cc2)nc2ccc(-c3ccc4c(c3)OCO4)cc12)N1CCC[C@H]1CN1CCCC1` [Compound 132], the concentration for half-maximal inhibition (IC50) is 1 to 10 µM.

For the compound `O=C(c1cc(/C=C/c2ccc(C(F)(F)F)cc2)nc2ccc(-c3ccc4c(c3)OCO4)cc12)N1CCC[C@H]1CN1CCCC1` [Compound 133], the concentration for half-maximal inhibition (IC50) is 1 to 10 µM.

Regarding `O=C(c1cc(CCc2ccccc2)nc2ccc(-c3ccc4c(c3)OCO4)cc12)N1CCC[C@H]1CN1CCCC1` [Compound 134], the IC50 lay in the range of 1 to 10 µM.

On to `O=C(c1cc(CCc2ccc(F)cc2)nc2ccc(-c3ccc4c(c3)OCO4)cc12)N1CCC[C@H]1CN1CCCC1` [Compound 135], for which the IC50 was 1 to 10 µM.

With `O=C(c1cc(CCc2ccc(Cl)cc2)nc2ccc(-c3ccc4c(c3)OCO4)cc12)N1CCC[C@H]1CN1CCCC1` [Compound 136], the IC50 was 1 to 10 µM.

Turning to `O=C(c1cc(CCc2ccc(C(F)(F)F)cc2)nc2ccc(-c3ccc4c(c3)OCO4)cc12)N1CCC[C@H]1CN1CCCC1` [Compound 137], the IC50 is 1 to 10 µM.

Take `NC(=O)c1cc(C(=O)N2CCC[C@H]2CN2CCCC2)c2cc(-c3ccc4c(c3)OCO4)ccc2n1` [Compound 138]: the IC50 was > 10 µM.

Take `O=C(NCc1ccc(C(F)(F)F)cc1)c1cc(C(=O)N2CCC[C@H]2CN2CCCC2)c2cc(-c3ccc4c(c3)OCO4)ccc2n1` [Compound 139]: the IC50 was in the range of 1 to 10 µM.

Take `O=C(NCc1ccc(Cl)cc1)c1cc(C(=O)N2CCC[C@H]2CN2CCCC2)c2cc(-c3ccc4c(c3)OCO4)ccc2n1` [Compound 140]: the half-maximal inhibitory concentration (IC50) is < 1 µM.

As for `O=C(NCCc1ccccc1)c1cc(C(=O)N2CCC[C@H]2CN2CCCC2)c2cc(-c3ccc4c(c3)OCO4)ccc2n1` [Compound 141], the IC50 lay within 1 to 10 µM.

As for `CC(CNC(=O)c1cc(C(=O)N2CCC[C@H]2CN2CCCC2)c2cc(-c3ccc4c(c3)OCO4)ccc2n1)c1ccccc1` (some centres unmarked) [Compound 142], the half-inhibitory concentration (IC50) lay in the range of 1 to 10 µM.

With `CCN(Cc1ccc(C)cc1)C(=O)c1cc(C(=O)N2CCC[C@H]2CN2CCCC2)c2cc(-c3ccc4c(c3)OCO4)ccc2n1` [Compound 143], the IC50 was 1 to 10 µM.

For `O=C(Nc1ccccc1)c1cc(C(=O)N2CCC[C@H]2CN2CCCC2)c2cc(-c3ccc4c(c3)OCO4)ccc2n1` [Compound 144], the IC50 is 1 to 10 µM.

Turning to `O=C(c1cc(NCc2ccc(C(F)(F)F)cc2)nc2ccc(-c3ccc4c(c3)OCO4)cc12)N1CC2CC2[C@H]1CN1CCCC1` (some centres unmarked) [Compound 145], the IC50 lay within 1 to 10 µM.

In the case of `O=C(c1cc(NCc2ccc(Cl)cc2)nc2ccc(-c3ccc4c(c3)OCO4)cc12)N1CC2CC2[C@H]1CN1CCCC1` (some centres unmarked) [Compound 146], the half-inhibitory concentration (IC50) fell in the range of 1 to 10 µM.

Take `C[C@H]1CCN(C(=O)c2cc(NCc3ccc(C(F)(F)F)cc3)nc3ccc(-c4ccc5c(c4)OCO5)cc23)[C@@H]1CN1CCCC1` [Compound 147]: the half-inhibitory concentration (IC50) is 1 to 10 µM.

In the case of `C[C@H]1CCN(C(=O)c2cc(NCc3ccc(Cl)cc3)nc3ccc(-c4ccc5c(c4)OCO5)cc23)[C@@H]1CN1CCCC1` [Compound 148], the half-inhibitory concentration (IC50) lay in the range of 1 to 10 µM.

For the compound `O=C(c1cc(NCc2ccc(C(F)(F)F)cc2)nc2ccc(-c3ccc4c(c3)OCO4)cc12)N1CC[C@H]1CN1CCCC1` [Compound 149], the IC50 is 1 to 10 µM.

Regarding `CN(Cc1ccccc1)c1cc(C(=O)N2CCC[C@H]2CN2CCCC2)c2cc(-c3ccc(C#N)cc3)ccc2n1` [Compound 150], the concentration for half-maximal inhibition (IC50) is > 10 µM.

For `COc1ccccc1CNc1cc(C(=O)N2CCC[C@H]2CN2CCCC2)c2cc(-c3ccc(C#N)cc3)ccc2n1` [Compound 151], the IC50 is > 10 µM.

As to `COc1ccc(CNc2cc(C(=O)N3CCC[C@H]3CN3CCCC3)c3cc(-c4ccc(C#N)cc4)ccc3n2)cc1` [Compound 152], the IC50 is > 10 µM.

As for `N#Cc1ccc(-c2ccc3nc(N4CCc5ccccc5C4)cc(C(=O)N4CCC[C@H]4CN4CCCC4)c3c2)cc1` [Compound 153], the IC50 is > 10 µM.

For the compound `N#Cc1ccc(-c2ccc3nc(NCc4ccccc4)cc(C(=O)N4CCC[C@H]4CN4CCCC4)c3c2)cc1` [Compound 154], the IC50 was > 10 µM.

The values are drawn from US20080119515A1, “Heterocyclic Kinase Inhibitors: Methods of Use and Synthesis” (priority 2003, published 2008).
